# “Also recorded” adds a separate entry of the source.
# Columns and labels:
# cultured neurons = experiment: H2O2-induced oxidative insult in cultured neurons, MTT assay of neuroprotection; format: cell-based, rat; settings: for effect on the neuroprotective efficacy of DHL: H2O2 insult; for % Neuroprotection: 4 h incubation, then 50 μM H2O2 30 min, MTT after 24 h, mean ± SEM
# From the text: (§1) Primary cultures may be established following the procedures outlined by Koenig, M. L., et al., (1996) Brain Res. 730:143-149, which is herein incorporated by reference. The forebrains of fetal rat pups (embryonic day 15) are isolated and the cells are dispersed by repeated trituration in neuronal culture medium (NCM). NCM comprises a 1:1 ratio of Ham's F-12 (Biofluids, Rockville, Md.) to Basal Medium Eagle (Sigma, St. Louis, Mo.), supplemented with 0.6 g/L of dextrose, 0.35% glutamine and 1% Pen-Strep (Biofluids. Rockville, Md.). Following centrifugation at 900×g for 5 minutes, the cells are plated onto poly-L-lysine-coated 48 well plates at a density of 10^6 cells/ml. To suppress glial growth. the cultures are treated with cytosine arabinoside (10^−5 M) for 4 days. All cultures are maintained in an incubator comprising 5% CO2 at 37° C. for about 6 days to about 15 days prior to use.
# Oxidative injury is assessed by using an MTT assay (Sigma, St. Louis, Mo.). About 24 h after exposure to either hemoglobin or an oxidative insult, MTT is added to each test well such that the final concentration of the dye is about 0.15 mg/ml. Plates are returned to the incubator for about 1 hr at which time unincorporated MTU is removed and the plates are allowed to air dry. The purple formazan product indicative of viable cells is then dissolved by adding about 250 μl of acidified isopropanol comprising about 95% isopropanol and about 5% 2N HCl. About 200 μl aliquots are collected and the absorbance of these aliquots are measured on an ELISA plate reader at about 540 nm. Control (untreated) wells are included in each experiment, and viability is calculated as the percentage of mean control values for each plate.
# (§2) Cultured neurons were incubated with four DHL concentrations, 3.0, 10.0, 30.0, and 100.0 micromolar of DHL, with or without 10 mM SPBN for four hours. After incubation. an oxidative insult was applied by adding 50 micromolar of H2O2 for 30 minutes after which the medium was removed and replaced with Minimum Essential Medium (MEM) (Sigma. St. Louis, Mo.). After 24 hours, the colormetric MTT assay as described above was conduced to determine amount of neuroprotection.
# as §2, with “30.0.” for “30.0,”, “PBN” for “SPBN”, “incubation,” for “incubation.”, “[…]” for “removed and replaced”, “(Sigma,” for “(Sigma.”
# [1] = test system: primary cultures of neurons derived from the forebrains of E-15 rat fetuses; experiment: Hemoglobin-induced toxicity in cultured neurons, MTT viability assay; format: cell-based
# Protocol: See Koenig et al., (1999) Neurosci. Abs., 25, which is herein incorporated by reference. […] […] Neuronal viability was assessed by using the calorimetric MT assay of succinate dehydrogenase activity. MTT is a calorimetric dye, 3-(4,5-dimethylthiazol-2-yl)-2,5-diphenyltetrazolium bromide, and is available from Sigma. Neuroprotection increased with increasing concentrations of DHLA.
# as §1, with “To suppress glial growth. the cultures are treated with cytosine arabinoside (10^−5 M) for 4 days. All cultures are maintained in an incubator comprising 5% CO2 at 37° C. for about 6 days to about 15 days prior to use.” left out
# Oxidative injury is assessed by using an MTT assay (Sigma, St. Louis, Mo.). […] About 200 μl aliquots are collected and the absorbance of these aliquots are measured on an ELISA plate reader at about 540 nm. Control (untreated) wells are included in each experiment, and viability is calculated as the percentage of mean control values for each plate.
# rats = experiment: Experimental spinal cord injury (dynorphin A injection) in rats, motor scores; format: in vivo; settings: rat, about 5 micromoles DHLA intrathecally, 2 hour pretreatment and treatment after injury
# Protocol: Here, about 5 micromoles of DHLA was administered intrathecally as a 2 hour pretreatment. Flaccid paralysis was acutely evident about 10 minutes after injection with dynorphin A and where there was no pretreatment with DHLA or co-treatment with DHLA. […] See Long et al., (1999) Neurosci. Abs. 25, which is herein incorporated reference.
# [2] = test system: cultured mouse hippocampal HT4 cells; settings: cited from earlier work
smiles,measurement,setting,value
"CC(C)(C)[N+]([O-])=Cc1ccccc1S(=O)(=O)O [SPBN, N-tert-Butyl-α-(2-sulfophenyl)nitrone, reference compound]",effect on the neuroprotective efficacy of DHL,cultured neurons; 10 mM SPBN co-incubated with 3-100 μM DHL,significantly increased
"CC(C)(C)[N+]([O-])=Cc1ccccc1 [PBN, alpha-Phenyl-N-tert-butylnitrone, reference compound]",effect on the neuroprotective efficacy of DHL,cultured neurons; 10 mM PBN co-incubated with 3-100 μM DHL,significantly increased
"O=C(O)CCCC[C@@H](S)CCS (racemic) [DHL, dihydrolipoic acid]",% Neuroprotection,"cultured neurons; DHL 3 μM, SPBN 0 mM",1.31 ± 5.23%
same,% Neuroprotection,"cultured neurons; DHL 10 μM, SPBN 0 mM",−3.68 ± 5.14%
same,% Neuroprotection,"cultured neurons; DHL 30 μM, SPBN 0 mM",7.04 ± 7.38%
same,% Neuroprotection,"cultured neurons; DHL 100 μM, SPBN 0 mM",28.48 ± 5.83%
same,% Neuroprotection,"cultured neurons; Table 2 experiment: DHL 3 μM, PBN 0 mM",−1.3 ± 7.2%
same,% Neuroprotection,"cultured neurons; Table 2 experiment: DHL 10 μM, PBN 0 mM",22.2 ± 13.6%
same,% Neuroprotection,"cultured neurons; Table 2 experiment: DHL 30 μM, PBN 0 mM",22.1 ± 9.7%
same,% Neuroprotection,"cultured neurons; Table 2 experiment: DHL 100 μM, PBN 0 mM",36.9 ± 9.6%
same,"neuroprotection against hemoglobin-induced toxicity (neuronal viability, MTT)",[1]; DHLA co-applied with hemoglobin (no pre-incubation),no evidence of neuroprotection
same,"neuroprotection against hemoglobin-induced toxicity (neuronal viability, MTT)","[1]; pre-incubation about 4 hours, about 0.3 to about 10 micromolar DHLA, then about 10 micromoles hemoglobin for about 24 hours",protective in a concentration-related manner
same,protection against experimental spinal cord injury (motor scores),rats,protective; also recorded: improve motor scores
"CN(C)CCNC(=O)CCCCC1CCSS1.Cl (centres unmarked) [LA-plus, 2-(N,N-dimethylamine) ethylamido lipoate-HCL]","in vitro protection against glutamate-induced loss of GSH, formation of peroxide and neurotoxicity, compared with ALA",[2],better

# Source: patent publication US6469049B1, “Method of treating, preventing or inhibiting central nervous system injuries and diseases” (The United States of America as represented by the …, priority 2000, dated 2002)
